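Method: 48-hour compound exposure of cells in 96-well plates, five concentrations, linear interpolation of endpoints. GI50: concentration for 50% inhibition of growth. At the TGI there is no net growth.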
Key:
Test in all cases: growth of human tumour cells (NCI), 48 h
[1] = test system: COLO 205 colon
[2] = test system: CCRF-CEM leukemia
[3] = test system: RPMI-8226 leukemia
[4] = test system: TK-10 renal
[5] = test system: SF-268 CNS
[6] = test system: M14 melanoma
[7] = test system: K-562 leukemia
[8] = test system: SNB-19 CNS
[9] = test system: UACC-257 melanoma
[10] = test system: A498 renal

Compound | TGI [1] | TGI [2] | TGI [3] | TGI [4] | TGI [5] | TGI [6] | TGI [7] | TGI [8] | TGI [9] | GI50 [1] | GI50 [10] | TGI [10] | GI50 [2] | GI50 [3] | GI50 [4] | GI50 [5] | GI50 [7] | GI50 [8] | GI50 [9] | GI50 [6]
C/C(=N/O)C1CC=C(S(=O)(=O)c2ccccc2)C1 (centres undefined) | > 100 µM | > 100 µM | > 100 µM | > 100 µM | > 100 µM | > 100 µM | > 100 µM | > 100 µM | > 100 µM | – | – | – | – | – | – | – | – | – | – | –
CC/C(=N\Nc1nc2ccccc2n1C)c1ccccn1 | 2.94 µM | > 36 µM | 6.29 µM | 12.3 µM | 11.1 µM | – | > 100 µM | 14.4 µM | 2.64 µM | < 0.01 µM | 0.153 µM | 0.837 µM | 0.0294 µM | 0.033 µM | 0.5 µM | 0.194 µM | 0.0102 µM | 0.281 µM | 0.0735 µM | –
COc1cc(CNC(=O)/C=C/C=C/c2ccc3c(c2)OCO3)ccc1OCc1cn(-c2ccc(Cl)c(Cl)c2)nn1 | – | 12.6 µM | 8.36 µM | 7.65 µM | 7.94 µM | 2.39 µM | 3.78 µM | 12.4 µM | 3.98 µM | – | 1.57 µM | 3.22 µM | 1.44 µM | 2.3 µM | 2.31 µM | 2.3 µM | 0.509 µM | 2.5 µM | 1.8 µM | 0.982 µM
N=C(N)n1ncc(Cl)c(Cl)c1=O | 3.43 µM | – | 7.55 µM | 35.3 µM | 9.34 µM | 4.03 µM | 6.36 µM | 12.9 µM | 4.66 µM | – | – | 35.1 µM | – | – | – | – | – | – | – | –
Cn1cc(-c2csc(-c3c[nH]c4ncccc34)n2)c2cc(Br)cnc21 | – | > 100 µM | > 100 µM | > 100 µM | > 100 µM | > 100 µM | > 100 µM | > 100 µM | – | – | 10.9 µM | > 100 µM | 6.81 µM | > 100 µM | 3.77 µM | 6.01 µM | 8.76 µM | 6.74 µM | – | 4.06 µM
COc1cc2c(cc1OC)C(CCc1ccc(Cl)cc1)N(C)CC2 (centres undefined) | 34.6 µM | > 100 µM | > 100 µM | 42.2 µM | > 100 µM | 37.7 µM | 66.1 µM | > 100 µM | 65.9 µM | 17.6 µM | – | – | 29.1 µM | 24.9 µM | 17 µM | 35 µM | 24.7 µM | 37.1 µM | 27.2 µM | 17.3 µM
C=C1CC[C@@H]2C(C)(C)[C@@H](O)CC[C@@]2(C)[C@@H]1COc1ccc2ccc(=O)oc2c1 | – | 68.3 µM | 65.7 µM | 43.4 µM | 33.1 µM | 27.2 µM | > 100 µM | 34.2 µM | 32.1 µM | – | – | – | – | 8.75 µM | 15.3 µM | 12.2 µM | 6.43 µM | 14.1 µM | 14.1 µM | 12.5 µM
O=C(Nc1cccc(Cl)c1)Nc1cccc(Cl)c1 | – | – | – | > 100 µM | > 100 µM | > 100 µM | > 100 µM | > 100 µM | > 100 µM | – | 2.87 µM | > 100 µM | – | – | > 100 µM | > 81.6 µM | 3.23 µM | > 42.9 µM | > 100 µM | > 100 µM
COc1ccc(/C=C2\N=C(c3ccccc3)OC2=O)c(OCc2ccccc2)c1 | > 100 µM | 50.2 µM | > 100 µM | – | > 100 µM | > 100 µM | > 100 µM | 94.3 µM | – | – | – | 68.5 µM | – | – | – | – | – | – | – | –
COc1ccc(Nc2c3ccccc3nc3c2c2ccccc2n3C)cc1 | > 100 µM | – | 24.7 µM | > 100 µM | > 100 µM | – | > 100 µM | > 100 µM | > 100 µM | 15.2 µM | – | – | – | 3.77 µM | 13 µM | 28 µM | 5.57 µM | > 100 µM | 37.5 µM | –
O=[N+]([O-])c1cccc(C2SCc3nc4ccccc4n32)c1 (centres undefined) | > 100 µM | > 100 µM | – | > 100 µM | > 100 µM | – | > 100 µM | > 100 µM | > 100 µM | – | – | > 100 µM | – | – | – | – | – | – | – | –
COC(=O)/C(C#N)=C\N1CCN(C(=O)c2ccco2)C1=S | > 100 µM | – | 62.4 µM | 13.2 µM | 17.9 µM | 19.9 µM | > 100 µM | > 100 µM | 22.5 µM | 31.7 µM | – | – | – | 3.3 µM | 3.63 µM | 4.83 µM | 3.68 µM | 54.9 µM | 5.94 µM | 6.35 µM
CCOC(=O)CC(=O)ON(C)C(=O)Cc1ccccc1 | > 100 µM | > 100 µM | > 100 µM | – | > 100 µM | > 100 µM | – | > 100 µM | > 100 µM | – | – | > 100 µM | – | – | – | – | – | – | – | –
Cc1ccc2nc3c(Cl)cc(=O)cc-3sc2c1 | 36.3 µM | 19.8 µM | – | 53.8 µM | 68.1 µM | 60.5 µM | 56.1 µM | – | 46.6 µM | – | – | – | – | – | – | – | – | – | – | –
Nc1nc(-c2ccccc2)c(-c2ccccc2)c(-c2nc(N)nc(-c3ccccc3)c2-c2ccccc2)n1 | > 100 µM | – | – | > 100 µM | > 100 µM | > 100 µM | > 100 µM | > 100 µM | > 100 µM | – | – | > 100 µM | – | – | – | – | – | – | – | –
COc1cc(/C=C/C(=O)C(=Cc2ccc(F)c(F)c2)C(=O)/C=C/c2ccc(O)c(OC)c2)ccc1O | 4.74 µM | > 100 µM | 8.29 µM | 8.37 µM | 12.5 µM | – | 32.8 µM | 15.9 µM | 4.37 µM | 2.26 µM | 2 µM | 6.95 µM | 2.46 µM | 2.44 µM | 2.67 µM | 2.74 µM | 3.16 µM | 3.54 µM | 1.78 µM | –
CSC1=Nc2c(c(C)c(-c3ccccc3)n2COC(CO)CO)C2=NC(=O)C(C)N12 (centres undefined) | > 100 µM | > 100 µM | > 100 µM | > 100 µM | > 100 µM | – | > 100 µM | > 100 µM | > 100 µM | > 100 µM | > 100 µM | > 100 µM | > 100 µM | > 100 µM | > 100 µM | > 100 µM | > 100 µM | > 100 µM | > 100 µM | –
O=C(c1cc2ccccc2[nH]1)C(O)(c1cc2ccccc2[nH]1)c1cc2ccccc2[nH]1 | > 246 µM | > 246 µM | > 246 µM | > 246 µM | > 246 µM | – | > 246 µM | > 246 µM | > 246 µM | – | – | – | – | – | – | – | – | – | – | –
COc1ccc(/C=C/C(=O)c2sc(N)nc2C)cc1 | > 100 µM | > 100 µM | > 100 µM | > 100 µM | > 100 µM | – | > 100 µM | > 100 µM | > 100 µM | – | – | > 100 µM | – | – | – | – | – | – | – | –
Cc1cc(C)nc(NS(=O)(=O)c2ccc(Nc3c4ccccc4nc4c(C(=O)NCCN(C)C)ccc(Cl)c34)cc2)n1 | 2.64 µM | 15.7 µM | – | 20.3 µM | 8.11 µM | 10.6 µM | 11.7 µM | 6.08 µM | – | – | – | – | – | – | – | – | – | – | – | –
Cc1ccc(-n2c3c(c4c(CN5CCCCC5)c(O)ccc42)CCc2ccccc2C3=O)cc1 | > 100 µM | – | > 100 µM | > 100 µM | > 100 µM | > 100 µM | > 100 µM | > 100 µM | > 100 µM | > 100 µM | > 100 µM | > 100 µM | – | > 100 µM | > 100 µM | > 100 µM | 32.2 µM | > 100 µM | > 100 µM | > 100 µM
CCc1cccc(C(C)CC)c1N=C(NC(=O)c1ccccc1C(=O)NC(=Nc1c(CC)cccc1C(C)CC)SC)SC (centres undefined) | > 100 µM | > 100 µM | 89.8 µM | 79 µM | > 100 µM | 44.5 µM | > 100 µM | > 100 µM | > 100 µM | – | – | – | – | – | – | – | – | – | – | –
CN(C)CCNC(=O)c1cccc2nc3ccc4ccccc4c3nc12 | 0.206 µM | 1.34 µM | – | 0.574 µM | 0.675 µM | 1.14 µM | 25.6 µM | 0.921 µM | 0.531 µM | – | – | 0.241 µM | – | – | – | – | – | – | – | –
CC(C)c1cc(C(C)C)c(S(=O)(=O)NN)c(C(C)C)c1 | > 100 µM | – | > 100 µM | > 100 µM | > 100 µM | – | > 100 µM | > 100 µM | > 100 µM | – | – | > 100 µM | – | – | – | – | – | – | – | –
CCC(=O)C1=C(OC(C)=O)C2Cc3c(n(C)c4ccccc34)C(C1)N2C (centres undefined) | > 100 µM | 80.9 µM | – | > 100 µM | 47.9 µM | > 100 µM | > 100 µM | > 100 µM | > 100 µM | – | – | > 100 µM | – | – | – | – | – | – | – | –
C=CCC(C(=O)OC)C1(C(=O)OC)c2[nH]c3ccccc3c2CCN1Cc1ccccc1 (centres undefined) | > 100 µM | > 100 µM | > 100 µM | > 100 µM | > 100 µM | > 100 µM | – | > 100 µM | – | – | – | > 100 µM | – | – | – | – | – | – | – | –
Cc1ccc(SSCCCS(=O)O)cc1 | 52.9 µM | – | – | > 100 µM | 48.2 µM | 96.8 µM | > 100 µM | > 100 µM | > 100 µM | – | – | 69.9 µM | – | – | – | – | – | – | – | –
CC(C)(O)[C@@H]1CCC(C)([C@H]2[C@@H](O)CC3(C)C4CC(OC5OC(CO)C(O)C(O)C5O)C5C(C)(C)[C@@H](OC6OCC(O)C(O)C6O)CC[C@@]56C[C@@]46CC[C@]23C)O1 (some centres undefined) | > 100 µM | > 100 µM | > 100 µM | > 100 µM | > 100 µM | > 100 µM | > 100 µM | > 100 µM | > 100 µM | – | – | – | – | – | – | – | – | – | – | –
